Converted amounts (≈) assume the structure as drawn.
Assays:
Format in all cases: functional
Escherichia coli [1] = experiment: Antibacterial activity against Escherichia coli 26R793 by Etest
Escherichia coli [2] = experiment: Antibacterial activity against metallo-beta-lactamase VIM12 expressing Escherichia coli 28 isolate from decubitus ulcer infection patient by Etest
Escherichia coli [3] = experiment: Antibacterial activity against Escherichia coli transconjugant carrying pEC28 isolate eby Etest

| Structure (SMILES) | MIC (Escherichia coli [1]) [µg/mL] | MIC (Escherichia coli [2]) [µg/mL] | MIC (Escherichia coli [3]) [µg/mL] |
| --- | --- | --- | --- |
| NCC[C@H](O)C(=O)N[C@@H]1C[C@H](N)[C@@H](O[C@H]2O[C@H](CN)[C@@H](O)[C@H](O)[C@H]2O)[C@H](O)[C@H]1O[C@H]1O[C@H](CO)[C@@H](O)[C@H](N)[C@H]1O [AMIKACIN] | 2 (≈ 3.42 µM) | 128 (≈ 219 µM) | 48 (≈ 82 µM) |
| CC1(C)S[C@@H]2[C@H](NC(=O)[C@H](N)c3ccc(O)cc3)C(=O)N2[C@H]1C(=O)O [AMOXICILLIN] | 4 (≈ 10.9 µM) | > 256 | 32 (≈ 87.6 µM) |
| C[C@H]1[C@H](NC(=O)/C(=N\OC(C)(C)C(=O)O)c2csc(N)n2)C(=O)N1S(=O)(=O)O [AZTREONAM] | 0.094 (≈ 0.216 µM) | 1 (≈ 2.3 µM) | 0.5 (≈ 1.15 µM) |
| CO/N=C(\C(=O)N[C@@H]1C(=O)N2C(C(=O)[O-])=C(C[N+]3(C)CCCC3)CS[C@H]12)c1csc(N)n1 [CEFEPIME] | 0.094 (≈ 0.196 µM) | 12 (≈ 25 µM) | 1 (≈ 2.08 µM) |
| CO/N=C(\C(=O)N[C@@H]1C(=O)N2C(C(=O)O)=C(COC(C)=O)CS[C@H]12)c1csc(N)n1 [CEFOTAXIME] | 0.094 (≈ 0.206 µM) | > 32 | 8 (≈ 17.6 µM) |
| CO[C@@]1(NC(=O)Cc2cccs2)C(=O)N2C(C(=O)O)=C(COC(N)=O)CS[C@@H]21 [CEFOXITIN] | 8 (≈ 18.7 µM) | > 256 | 32 (≈ 74.9 µM) |
| CC(C)(O/N=C(\C(=O)N[C@@H]1C(=O)N2C(C(=O)[O-])=C(C[n+]3ccccc3)CS[C@H]12)c1csc(N)n1)C(=O)O [CEFTAZIDIME] | 0.75 (≈ 1.37 µM) | > 256 | 4 (≈ 7.32 µM) |
| O=C(O)c1cn(C2CC2)c2cc(N3CCNCC3)c(F)cc2c1=O [CIPROFLOXACIN] | 0.047 (≈ 0.142 µM) | 0.047 (≈ 0.142 µM) | 0.047 (≈ 0.142 µM) |
| C[C@@H](O)[C@H]1C(=O)N2C(C(=O)O)=C(S[C@@H]3CN[C@H](C(=O)Nc4cccc(C(=O)O)c4)C3)[C@H](C)[C@H]12 [ERTAPENEM] | 0.064 (≈ 0.135 µM) | 0.5 (≈ 1.05 µM) | 0.094 (≈ 0.198 µM) |
| C[C@@H](O)[C@H]1C(=O)N2C(C(=O)O)=C(SCCNC=N)C[C@H]12 [IMIPENEM ANHYDROUS] | 0.5 (≈ 1.67 µM) | 1 (≈ 3.34 µM) |  |
| C[C@@H](O)[C@H]1C(=O)N2C(C(=O)O)=C(S[C@@H]3CN[C@H](C(=O)N(C)C)C3)[C@H](C)[C@H]12 [MEROPENEM] | 0.032 (≈ 0.0834 µM) | 0.25 (≈ 0.652 µM) | 0.023 (≈ 0.06 µM) |
| CN(C)[C@@H]1C(O)=C(C(N)=O)C(=O)[C@@]2(O)C(O)=C3C(=O)c4c(O)cccc4[C@@](C)(O)[C@H]3C[C@@H]12 [TETRACYCLINE] | 1 (≈ 2.25 µM) | > 256 | 1 (≈ 2.25 µM) |

Source: ChEMBL document CHEMBL1155151, “First occurrence of an Escherichia coli clinical isolate producing the VIM-1/VIM-2 hybrid metallo-beta-lactamase VIM-12” (2007)
